Data on seven molecules can be found in patent US9045445B2, “Glycine transporter-1 inhibitors, methods of making them, and uses thereof” (Albany Molecular Research, Inc., priority 2010, dated 2015).

Structures are written as SMILES. Counter-ions that a name gives are not always drawn. Like-named read-outs stand apart in the source and are kept apart here. Where only a bound is given, the exact number is not on record here.

In data set [1] the target is T1, glycine transporter-1 (GlyT-1) (Homo sapiens, UniProt P48067).
T1 construct: JAR cells (ATCC#HTB-144), which endogenously express GlyT-1; host or cells: JAR human choriocarcinoma cells
T1 sequence (P48067 1-706): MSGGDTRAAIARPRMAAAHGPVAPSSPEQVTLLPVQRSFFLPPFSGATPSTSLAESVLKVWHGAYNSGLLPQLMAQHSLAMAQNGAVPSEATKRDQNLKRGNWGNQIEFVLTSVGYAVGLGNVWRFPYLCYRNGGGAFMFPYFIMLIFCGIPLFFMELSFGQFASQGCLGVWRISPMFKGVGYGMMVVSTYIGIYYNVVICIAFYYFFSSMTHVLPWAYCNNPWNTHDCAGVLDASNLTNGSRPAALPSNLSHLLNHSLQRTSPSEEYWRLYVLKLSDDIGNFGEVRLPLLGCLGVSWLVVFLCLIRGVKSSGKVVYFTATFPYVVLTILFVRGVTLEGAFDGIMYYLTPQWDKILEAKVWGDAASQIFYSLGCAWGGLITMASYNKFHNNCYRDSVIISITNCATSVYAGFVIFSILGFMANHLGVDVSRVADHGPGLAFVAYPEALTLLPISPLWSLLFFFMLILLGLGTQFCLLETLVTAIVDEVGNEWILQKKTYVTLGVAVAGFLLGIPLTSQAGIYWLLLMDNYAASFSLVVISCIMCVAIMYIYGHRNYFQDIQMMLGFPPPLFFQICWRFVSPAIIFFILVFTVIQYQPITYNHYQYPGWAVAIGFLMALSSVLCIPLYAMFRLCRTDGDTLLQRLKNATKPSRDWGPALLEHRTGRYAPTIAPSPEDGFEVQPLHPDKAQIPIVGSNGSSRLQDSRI
Kind of data set: [14C]glycine uptake assay in JAR cells endogenously expressing GlyT-1 (scintillation proximity). The format is cell-based. The following applies: JAR cells, [14C]glycine 5 μM, 3 hour incubation; read-out: GlyT-1 IC50. A digest of the protocol: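 Human choriocarcinoma JAR cells (endogenous GlyT-1) attached overnight, then pre-incubated 10 min at room temperature with compound in pH 7.4 Hepes uptake buffer containing 5 mM alanine and 0.75% DMSO. Uptake of 5 μM [14C]glycine over 3 h at 37 °C read by scintillation proximity; IC50 from four-parameter fit of nine-point curves.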
For orientation: Scintillation proximity formats need no separation of bound from free tracer.

The subject of data set [2] is cerebrospinal fluid (CSF) glycine levels. As to the kind of experiment: CSF-glycine assay after oral administration. The format is in vivo. The settings on record: Rattus norvegicus, po, rats, read-out: % CSF Glycine Increase versus Vehicle Control. The protocol: This study measured cerebrospinal fluid (CSF) glycine levels after oral administration of test compound. […] After the specified pretreatment time, the rats were euthanized by CO2 asphyxiation and a hypodermic needle was inserted into the cisterna magna to withdraw 50-100 μl of CSF. The CSF was diluted with deuterated-glycine as an internal standard glycine was quantified by LC/MS/MS.

Data set [3] addresses T2, glycine transporter-2 (GlyT-2) (Homo sapiens, UniProt Q9Y345).
T2 construct: expressed in transfected cells
T2 sequence (Q9Y345 1-797): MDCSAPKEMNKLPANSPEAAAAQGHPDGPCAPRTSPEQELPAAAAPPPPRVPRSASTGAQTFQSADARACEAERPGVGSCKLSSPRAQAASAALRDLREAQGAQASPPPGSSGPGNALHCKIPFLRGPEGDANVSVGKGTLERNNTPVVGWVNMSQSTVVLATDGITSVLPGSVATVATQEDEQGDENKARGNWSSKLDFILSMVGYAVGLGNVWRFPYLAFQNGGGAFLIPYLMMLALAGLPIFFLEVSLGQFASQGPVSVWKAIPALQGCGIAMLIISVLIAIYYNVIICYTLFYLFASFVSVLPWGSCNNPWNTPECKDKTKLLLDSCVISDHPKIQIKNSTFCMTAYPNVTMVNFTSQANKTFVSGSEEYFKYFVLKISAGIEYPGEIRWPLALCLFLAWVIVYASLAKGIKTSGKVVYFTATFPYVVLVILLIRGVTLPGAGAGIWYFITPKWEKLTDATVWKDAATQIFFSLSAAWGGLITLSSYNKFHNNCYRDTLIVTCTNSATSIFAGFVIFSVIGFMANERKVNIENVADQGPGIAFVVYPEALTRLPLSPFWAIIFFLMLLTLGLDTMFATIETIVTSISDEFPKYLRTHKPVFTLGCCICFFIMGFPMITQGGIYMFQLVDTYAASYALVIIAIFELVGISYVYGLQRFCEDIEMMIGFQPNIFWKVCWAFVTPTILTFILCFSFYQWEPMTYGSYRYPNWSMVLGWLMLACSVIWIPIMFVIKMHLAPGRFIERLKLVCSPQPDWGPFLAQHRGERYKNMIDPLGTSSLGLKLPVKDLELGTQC
Kind of data set: [14C]glycine uptake assay in HEK-GlyT-2 transfected cells. Format: cell-based. The following applies: HEK-GlyT-2 cells.

Usually melting point stands for the temperature, or range, at which the solid turns liquid. The molecule `Cn1cc(S(=O)(=O)N2CCN(C3(CNC(=O)c4ccc(C(F)(F)F)cc4C(F)(F)F)CCOCC3)CC2)nn1` (as salt: hydrochloride) [compound 276, N-((4-(4-(1-Methyl-1H-1,2,3-triazol-4-ylsulfonyl)piperazin-1-yl)tetrahydro-2H-pyran-4-yl)methyl)-2,4-bis(trifluoromethyl) benzamide Hydrochloride] had a melting point of 145 °C.
What is called IC50 is the concentration that inhibits the measured activity by half. `CC(O)CS(=O)(=O)N1CCN(C2(CNC(=O)c3ccc(C(F)(F)F)cc3Cl)CCC(F)(F)CC2)CC1.Cl` (single isomer, unassigned; enantiomer a) [compound 278, (Enantiomer A)-2-Chloro-N-((4,4-difluoro-1-(4-(2-hydroxypropylsulfonyl)piperazin-1-yl)cyclohexyl)methyl)-4-(trifluoromethyl) benzamide Hydrochloride] returned a melting point of 80 to 82 °C. Further, in data set [1], the IC50 amounted to 24 nM.
For the molecule `CC(=O)CS(=O)(=O)N1CCN(C2(CNC(=O)c3ccc(C(F)(F)F)cc3Cl)CCC(F)(F)CC2)CC1` (as salt: hydrochloride) [compound 280, 2-Chloro-N-((4,4-difluoro-1-(4-(2-oxopropylsulfonyl)piper-azin-1-yl)cyclohexyl)methyl)-4-(trifluoromethyl) benzamide Hydrochloride], the melting point lay in the range of 65 to 67 °C.
For the molecule `Cn1cc(S(=O)(=O)N2CCN(C3(CNC(=O)c4c(F)cccc4F)CCC(F)(F)CC3)CC2)nn1` [compound 189, N-((4,4-Difluoro-1-(4-(1-melhyl-1H-1,2,3-triazol-4-ylsulfonyl)piperazin-1-yl)cyclohexyl)methyl)-2,6-difluorobenzamide Hydrochloride], in data set [2] (0.5 h, pretreatment 30 mins), the change in vivo at 10 mg/kg came out at 158%, the change in vivo at 30 mg/kg is 219% and the change in vivo at 100 mg/kg came out at 281%. In data set [2] (2 h, pretreatment 120 mins), the change in vivo at 10 mg/kg worked out at 203%, the change in vivo at 30 mg/kg is 270% and the change in vivo at 100 mg/kg amounted to 288%. For the same molecule, the IC50 in data set [3] was over 75000 nM. Further, the IC50 in data set [1] came to 5 nM.
Take `CCCS(=O)(=O)N1CCN(C2(CNC(=O)c3c(F)cccc3F)CCC(F)(F)CC2)CC1` [compound 130, N-((4,4-Difluoro-1-(4-(propylsulfonyl)piperazin-1-yl)cyclohexyl)methyl)-2,6-difluorobenzamide Hydrochloride]: in data set [2] (0.5 h, pretreatment 30 mins), the change in vivo at 10 mg/kg stood at 148%, the change in vivo at 30 mg/kg stood at 185% and the change in vivo at 75 mg/kg worked out at 201%. Also, in data set [2] (2 h, pretreatment 120 mins), the change in vivo at 10 mg/kg amounted to 123%, the change in vivo at 30 mg/kg was 125% and the change in vivo at 75 mg/kg came to 201%. This molecule also gave an IC50 in data set [3] of over 75000 nM. Also, the IC50 in data set [1] stood at 67 nM.
Molecule `Cl.Cn1cc(S(=O)(=O)N2CCN(C3(CNC(=O)c4ccc(C(F)(F)F)cc4Cl)CCOCC3)CC2)nn1` [compound 277, 2-Chloro-N-((4-(4-(1-methyl-1H-1,2,3-triazol-4-ylsulfonyl)piperazin-1-yl)tetrahydro-2H-pyran-4-yl)methyl)-4-(trifluoromethyl)benzamide Hydrochloride] showed a melting point of 147 °C. Further, in data set [1], the IC50 was 8 nM.
In the same order, the values of `Cl.Cn1cnc(S(=O)(=O)N2CCN(C3(CNC(=O)c4ccc(C(F)(F)F)cc4Cl)CCC(F)(F)CC3)CC2)n1` [compound 281, 2-Chloro-N-((4,4-difluoro-1-(4-(1-methyl-1H-1,2,4-triazol-3-ylsulfonyl)piperazin-1-yl)cyclohexyl)methyl)-4-(trifluoromethyl)benzamide Hydrochloride] are 180 to 185 °C and 284 nM.
